Measurements reported in patent publication US20130316374A1, “BREAST CANCER DIAGNOSTICS” (IMBA - INSTITUT FUR MOLEKULARE BIOTECHNOLOGIE GMBH, priority 2010, published 2013).

Experiments:
Lin-CD24+CD49f^hi cells = assay: FACS quantification of MaSC-enriched CD24+CD49high population from mammary glands; assay type: in vivo, mouse; conditions: MPA for 3 days
Method: a, Epithelial proliferation in mammary glands of control littermates and RANK^Δmam females 3 days after sham treatment and MPA implantation. Proliferation was determined by in situ Ki67 immunostaining. b,c, Marked increase of the stem cell-enriched CD24^+CD49^high population (MaSC) in MPA-treated mammary glands in control but not in RANK^Δmam mammary glands. b, Representative FACS profiles showing CD24 and CD49 expression of lineage negative (CD31^− (endothelial cells) CD45^− (hematopoietic cells) […] (erythroid cells)) of mammary MaSCs from MPA- or sham-treated 8-week old virgin females. c, Quantification of MaSC-enriched CD24^+CD49^high population from mammary glands of MPA- or sham-treated virgin RANK^Δmam and littermate control females. For all MaSCs experiments mice were treated with MPA for 3 days. n=4 per group+/−sem. *P<0.05; ***P<0.001 (Student's t-test).
Recently it has been reported that endogenous progesterone affects the numbers of Lin-CD24+CD49f^hi stem cells during pregnancy^15 and the estrous cycle^16. In both studies, the RANKL/RANK system was implicated based on in vivo whole body Ab blocking studies and RT-PCR expression, however, it was not known whether this is a direct effect of RANKL-RANK in mammary epithelial cells rather than a secondary effect. Therefore it was assayed whether progestins such as MPA can also expand Lin-CD24+CD49f^hi cells.

mammary epithelial cells = assay: γ-irradiation induced mammary epithelial cell apoptosis in vivo (active Caspase 3); set-up: species or system mouse; conditions: 5 Gray
Method: a, Western blotting for phosphorylated (P) IKKα, total IKKα, phosphorylated (P) p65 NFκB, total p65 NFκB, phosphorylated (P) IκBα, and total IκBα in isolated primary mouse mammary gland epithelial cells (MECs) in response to RANKL stimulation (1 μg/ml). […] Expression was determined by qRT-PCR. […] Apoptosis was detected by immunostaining for active Caspase 3. f, Apoptotic nuclei of epithelial cells (arrows) are shown for representative mammary gland sections. Magnifications ×40. g, Quantification of mammary epithelial apoptosis. A minimum of 5000 nuclei was counted for each mouse. […]
a,b, Reduced induction of mammary epithelial cell apoptosis in response to γ-irradiation in IKKαhu Δmam females. […] 24 hours after irradiation, apoptosis was detected by immunostaining for active Caspase 3. a, Apoptotic nuclei of epithelial cells (arrows) are shown for representative mammary gland sections. Magnifications ×40. b, Quantification of mammary epithelial apoptosis. A minimum of 5000 nuclei was counted for each mouse. […]
For histological analysis, 5 μm sections were cut and stained with hematoxylin and eosin (H&E). […] Histomorphometric indices (proliferation and apoptosis) were calculated as the number of positive epithelial cells divided by the total number of epithelial cells, with no fewer than 1000 nuclei for Ki67 stainings and no fewer than 5000 cells for active Caspase 3 staining counted per section. […]

CC(=O)O[C@]1(C(C)=O)CC[C@H]2[C@@H]3C[C@H](C)C4=CC(=O)CC[C@]4(C)[C@H]3CC[C@@]21C [MPA, medroxyprogesterone acetate]
expansion of Lin-CD24+CD49f^hi cells (Lin-CD24+CD49f^hi cells; RANK^Δmam females): did not occur | expansion of Lin-CD24+CD49f^hi cells (Lin-CD24+CD49f^hi cells; control females): two-fold expansion | γ-irradiation-induced apoptosis of mammary epithelial cells (mammary epithelial cells; control females, MPA pellet): protected from γ-irradiation-induced apoptosis | protective effects of MPA on γ-irradiation-induced cell death (mammary epithelial cells; loss of RANK expression on mammary epithelial cells (RANK^Δmam)): abrogated
